For three compounds, remaining activity results are on record in US20240246942A1, “KINASE INHIBITORS FOR THE TREATMENT OF NEURODEGENERATIVE DISEASES” (priority 2020, published 2024).

Common to all, as to experiment: biochemical
The target in experiment [1] is T1, panel of 374 wild-type kinases (Homo sapiens, UniProt Q8IVT5).
T1 construct: purchased Reaction Biology Corporation
T1 sequence (Q8IVT5 1-923): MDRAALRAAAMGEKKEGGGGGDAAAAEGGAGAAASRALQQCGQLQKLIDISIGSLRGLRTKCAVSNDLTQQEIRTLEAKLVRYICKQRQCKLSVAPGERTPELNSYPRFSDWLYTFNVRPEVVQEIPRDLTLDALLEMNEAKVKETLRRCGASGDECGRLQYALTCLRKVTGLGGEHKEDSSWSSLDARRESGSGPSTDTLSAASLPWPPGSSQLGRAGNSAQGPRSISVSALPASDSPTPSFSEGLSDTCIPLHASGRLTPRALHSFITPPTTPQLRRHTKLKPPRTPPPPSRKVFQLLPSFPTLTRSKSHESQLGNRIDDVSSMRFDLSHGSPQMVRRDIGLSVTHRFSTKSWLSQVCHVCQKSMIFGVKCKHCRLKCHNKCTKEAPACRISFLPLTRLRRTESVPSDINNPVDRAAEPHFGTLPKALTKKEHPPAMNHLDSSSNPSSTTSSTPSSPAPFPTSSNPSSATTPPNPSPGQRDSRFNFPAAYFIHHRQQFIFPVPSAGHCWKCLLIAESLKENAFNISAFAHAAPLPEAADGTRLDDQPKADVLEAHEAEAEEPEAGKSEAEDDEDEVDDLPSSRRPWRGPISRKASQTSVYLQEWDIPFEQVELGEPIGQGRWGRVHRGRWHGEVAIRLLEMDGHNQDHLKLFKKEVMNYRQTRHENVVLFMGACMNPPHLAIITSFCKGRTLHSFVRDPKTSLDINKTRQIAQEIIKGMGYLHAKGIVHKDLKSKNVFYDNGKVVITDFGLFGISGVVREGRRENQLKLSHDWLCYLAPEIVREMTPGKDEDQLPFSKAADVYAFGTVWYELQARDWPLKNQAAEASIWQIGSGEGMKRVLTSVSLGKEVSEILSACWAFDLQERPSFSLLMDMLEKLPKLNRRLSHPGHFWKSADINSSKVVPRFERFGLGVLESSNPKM
The conditions noted are these: read-out: % Enzyme Activity (relative to DMSO controls), KSR1.

Experiment [2] deals with T2, panel of 374 wild-type kinases (Homo sapiens, UniProt P51957).
T2 construct: purchased Reaction Biology Corporation
T2 sequence (P51957 whole entry): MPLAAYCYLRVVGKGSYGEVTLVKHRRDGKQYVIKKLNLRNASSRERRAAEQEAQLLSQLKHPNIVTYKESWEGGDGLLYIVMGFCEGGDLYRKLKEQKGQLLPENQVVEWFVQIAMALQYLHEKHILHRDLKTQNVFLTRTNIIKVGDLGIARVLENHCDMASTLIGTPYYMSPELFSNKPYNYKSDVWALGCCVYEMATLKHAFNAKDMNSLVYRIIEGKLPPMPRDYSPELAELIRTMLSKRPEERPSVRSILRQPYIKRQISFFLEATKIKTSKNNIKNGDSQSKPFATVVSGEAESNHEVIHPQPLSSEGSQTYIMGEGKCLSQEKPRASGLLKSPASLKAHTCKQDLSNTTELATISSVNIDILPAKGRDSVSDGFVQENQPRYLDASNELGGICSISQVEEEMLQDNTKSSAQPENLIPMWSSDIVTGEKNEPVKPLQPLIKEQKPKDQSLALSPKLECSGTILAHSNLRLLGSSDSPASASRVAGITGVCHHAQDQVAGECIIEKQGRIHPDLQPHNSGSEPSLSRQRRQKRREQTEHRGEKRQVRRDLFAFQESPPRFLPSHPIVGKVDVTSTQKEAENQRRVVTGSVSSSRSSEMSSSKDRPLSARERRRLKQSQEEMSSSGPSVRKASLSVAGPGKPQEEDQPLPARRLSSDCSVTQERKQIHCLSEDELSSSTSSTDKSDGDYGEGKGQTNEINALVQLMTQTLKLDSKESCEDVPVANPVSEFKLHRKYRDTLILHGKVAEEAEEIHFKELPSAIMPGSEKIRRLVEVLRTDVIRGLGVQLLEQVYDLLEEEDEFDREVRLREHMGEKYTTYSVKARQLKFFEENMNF
The settings on record: read-out: % Enzyme Activity (relative to DMSO controls), NEK4.

Experiment [3] has as its target T3, panel of 374 wild-type kinases (Homo sapiens, UniProt Q05655).
T3 construct: purchased Reaction Biology Corporation
The conditions noted are these: read-out: % Enzyme Activity (relative to DMSO controls), kinase PKCd.

For experiment [4], the target named is T4, panel of 374 wild-type kinases (Homo sapiens, UniProt O43318).
T4 construct: purchased Reaction Biology Corporation
T4 sequence (O43318 1-606): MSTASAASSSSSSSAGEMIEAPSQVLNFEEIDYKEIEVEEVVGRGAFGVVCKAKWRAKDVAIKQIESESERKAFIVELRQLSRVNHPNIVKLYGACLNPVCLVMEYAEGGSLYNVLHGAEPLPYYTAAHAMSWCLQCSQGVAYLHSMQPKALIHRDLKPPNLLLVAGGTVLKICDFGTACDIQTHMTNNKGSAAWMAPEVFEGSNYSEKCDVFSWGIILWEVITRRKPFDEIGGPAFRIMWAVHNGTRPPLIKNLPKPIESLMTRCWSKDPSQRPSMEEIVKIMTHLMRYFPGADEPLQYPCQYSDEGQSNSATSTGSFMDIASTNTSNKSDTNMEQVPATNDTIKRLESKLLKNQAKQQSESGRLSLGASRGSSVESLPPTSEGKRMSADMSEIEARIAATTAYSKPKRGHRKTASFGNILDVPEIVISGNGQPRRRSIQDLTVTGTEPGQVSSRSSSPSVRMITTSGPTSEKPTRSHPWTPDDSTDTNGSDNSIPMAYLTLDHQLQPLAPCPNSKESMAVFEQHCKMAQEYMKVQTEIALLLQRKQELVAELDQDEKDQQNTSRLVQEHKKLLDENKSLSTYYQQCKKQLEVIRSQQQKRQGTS
The conditions noted are these: read-out: % Enzyme Activity (relative to DMSO controls), kinase TAK1.

The target in experiment [5] is T5, panel of 374 wild-type kinases (Homo sapiens, UniProt Q8IU85).
T5 construct: purchased Reaction Biology Corporation
T5 sequence (Q8IU85 whole entry): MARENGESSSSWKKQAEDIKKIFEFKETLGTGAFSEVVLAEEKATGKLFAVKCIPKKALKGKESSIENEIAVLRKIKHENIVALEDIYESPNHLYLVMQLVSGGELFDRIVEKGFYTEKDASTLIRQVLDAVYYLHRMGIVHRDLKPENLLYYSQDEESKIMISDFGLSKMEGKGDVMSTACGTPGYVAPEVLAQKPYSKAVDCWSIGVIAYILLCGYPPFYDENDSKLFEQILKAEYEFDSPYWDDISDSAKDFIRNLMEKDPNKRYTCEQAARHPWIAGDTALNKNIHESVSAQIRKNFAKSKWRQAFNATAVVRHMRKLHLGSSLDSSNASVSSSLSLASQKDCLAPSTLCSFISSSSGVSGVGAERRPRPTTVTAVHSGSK
The conditions noted are these: read-out: % Enzyme Activity (relative to DMSO controls), CAMK1d.

Experiment [6] deals with T6, panel of 374 wild-type kinases (Homo sapiens, UniProt Q13043).
T6 construct: purchased Reaction Biology Corporation
T6 sequence (Q13043 1-487): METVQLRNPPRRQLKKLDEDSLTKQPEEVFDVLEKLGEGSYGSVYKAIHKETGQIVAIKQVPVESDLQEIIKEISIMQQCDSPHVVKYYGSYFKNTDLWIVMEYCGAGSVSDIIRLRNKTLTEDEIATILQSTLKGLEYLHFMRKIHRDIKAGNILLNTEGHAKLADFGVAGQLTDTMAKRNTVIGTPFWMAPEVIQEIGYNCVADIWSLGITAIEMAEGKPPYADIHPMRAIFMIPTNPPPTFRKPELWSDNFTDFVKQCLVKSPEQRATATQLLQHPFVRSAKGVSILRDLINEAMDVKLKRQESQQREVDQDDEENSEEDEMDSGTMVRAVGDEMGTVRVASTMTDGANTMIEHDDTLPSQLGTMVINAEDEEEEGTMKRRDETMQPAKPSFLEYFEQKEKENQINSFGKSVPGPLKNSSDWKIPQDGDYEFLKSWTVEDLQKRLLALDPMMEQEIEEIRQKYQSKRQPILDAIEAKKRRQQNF
The settings on record: read-out: % Enzyme Activity (relative to DMSO controls), MST1/STK4.

The target of experiment [7] is T7, panel of 374 wild-type kinases (Homo sapiens, UniProt P28482).
T7 construct: purchased Reaction Biology Corporation
T7 sequence (P28482 whole entry): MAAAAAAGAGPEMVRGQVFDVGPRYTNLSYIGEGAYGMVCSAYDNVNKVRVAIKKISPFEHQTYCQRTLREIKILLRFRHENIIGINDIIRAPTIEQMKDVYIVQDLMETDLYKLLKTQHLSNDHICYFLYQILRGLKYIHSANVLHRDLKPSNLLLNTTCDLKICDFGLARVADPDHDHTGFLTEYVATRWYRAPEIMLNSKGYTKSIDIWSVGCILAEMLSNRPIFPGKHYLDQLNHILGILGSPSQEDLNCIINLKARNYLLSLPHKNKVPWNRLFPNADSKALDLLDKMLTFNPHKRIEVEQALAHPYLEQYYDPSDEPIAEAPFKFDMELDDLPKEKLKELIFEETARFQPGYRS
The settings on record: read-out: % Enzyme Activity (relative to DMSO controls), ERK2/MAPK1.

T3 sequence (Q05655 whole entry): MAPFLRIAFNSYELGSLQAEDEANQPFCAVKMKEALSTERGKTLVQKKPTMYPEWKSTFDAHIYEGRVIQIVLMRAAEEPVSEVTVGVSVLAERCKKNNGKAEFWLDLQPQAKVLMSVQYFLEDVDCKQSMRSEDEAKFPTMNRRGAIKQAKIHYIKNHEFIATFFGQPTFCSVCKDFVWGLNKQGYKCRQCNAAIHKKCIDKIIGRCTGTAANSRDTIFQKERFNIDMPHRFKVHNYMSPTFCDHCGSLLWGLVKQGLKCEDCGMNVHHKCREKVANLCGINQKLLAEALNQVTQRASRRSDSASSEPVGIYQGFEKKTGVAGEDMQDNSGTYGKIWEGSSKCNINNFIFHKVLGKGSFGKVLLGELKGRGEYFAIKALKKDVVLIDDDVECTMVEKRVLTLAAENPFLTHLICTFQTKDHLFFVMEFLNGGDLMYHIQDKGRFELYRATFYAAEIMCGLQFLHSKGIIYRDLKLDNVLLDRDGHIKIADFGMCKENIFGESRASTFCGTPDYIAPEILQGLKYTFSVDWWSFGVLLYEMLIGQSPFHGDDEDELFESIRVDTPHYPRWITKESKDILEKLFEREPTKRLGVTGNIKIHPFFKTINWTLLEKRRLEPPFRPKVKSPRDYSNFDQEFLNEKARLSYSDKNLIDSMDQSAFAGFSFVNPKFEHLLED

Take `Cc1sc(C(=O)NC2COC2)cc1-n1cc(NC(=O)Nc2c(F)cccc2Cl)cn1` [Compound 27, 4-(4-(3-(2-chloro-6-fluorophenyl)ureido)-1H-pyrazol-1-yl)-5-methyl-N-(oxetan-3-yl)thiophene-2-carboxamide]: the remaining activity at 10 µM in experiment [1] (10 uM) is 103%; in experiment [2] (10 uM) it was 75.5%; in experiment [3] (10 uM) it was 98%; in experiment [4] (10 uM) it was 98.4%; in experiment [5] (10 uM) it was 105%; in experiment [6] (10 uM), 107%. Moreover, the remaining activity at 10 µM in experiment [7] (10 uM) was 90.8%.
Turning to `O=C(Nc1cnn(-c2csc(C(=O)NC3COC3)c2)c1)Nc1c(F)cccc1Cl` [Compound 25, 4-(4-(3-(2-chloro-6-fluorophenyl)ureido)-1H-pyrazol-1-yl)-N-(oxetan-3-yl)thiophene-2-carboxamide], the remaining activity at 5 µM was found to be 105% in experiment [1]; 90.8% in experiment [2]; 101% in experiment [3]; 109% in experiment [4]; 99.6% in experiment [5]; 96.6% in experiment [6]. The remaining activity at 5 µM in experiment [7] amounted to 85.9%.
As to `O=C(Nc1cnn(-c2csc(C(=O)NC3COC3)c2)c1)Nc1ccccc1Cl` [Compound 17, 4-(4-(3-(2-chlorophenyl)ureido)-1H-pyrazol-1-yl)-N-(oxetan-3-yl)thiophene-2-carboxamide], the remaining activity at 5 µM in experiment [1] was found to be 101%; in experiment [2], 109%; in experiment [3], 112%; in experiment [4], 98%; in experiment [5], 104%; in experiment [6], 99.3%. The remaining activity at 5 µM in experiment [7] came to 110%.
